In US7714014B2, “Targeting GLI proteins in human cancer by small molecules” (The Regents of the University of California, priority 2005, dated 2010):

How the values were obtained:
Type in all cases: cell-based, human
[1] = test system: SW480 (colon cancer); assay: Apoptosis analysis (Annexin V FITC, flow cytometry); details: 3 days
Experimental: (§1) Apoptosis was analyzed by using an Annexin V FITC Apoptosis Detection Kit (Biosource, Camarillo, Calif.), according to the manufacturer's protocol. After treatment with different small molecule compounds at various concentrations for about 3 days, cells were harvested by trypsinization, stained and immediately analyzed by flow cytometry (FACScan; Decton Dickinson, Franklin Lake, N.J.). Early apoptotic cells with exposed phosphatidylserine but intact cell membranes will bind to Annexin V-FITC, but not propidium iodide (PI). Cells in necrotic or late apoptotic stages will be labeled with both Annexin V-FITC and PI. “% apoptotic cells” or “% apoptosis” refers to the combined early and late apoptotic cells.
Flow cytometry was used to examine apoptosis in colon cancer cells after treatment of cells with small molecule compounds of the invention.

[2] = test system: NSCLC cell lines H1299 and A549, colon cancer cell lines SW480 and HCT116; assay: Cell survival assay (crystal violet), initial screening; details: 100 μM, all cancer cell lines tested
Experimental: Typically, the small molecule compounds of the present invention were dissolved in DMSO at a concentration of 30 mM. The small molecule compounds were then tested under cell culture conditions at different concentrations ranging from 0, 10, 30, 50, to 100 uM. To determine cell survival after treatment, the cells were incubated with the small molecule compounds in 6-well plates for about 3 days. After removal of the cell culture medium, 1-ml of 0.5% crystal violet solution (prepared in 20% ethanol and 20% methanol) was added to stain the cells for 5 min. Then the crystal violet solution was rinsed clean with tap water. Cell survival was estimated based on the density of crystal stained plates.
Initial screening of small molecule compounds of the present invention was performed using the cell-based assays described herein. […] Two NSCLC cell lines, H1299 and A549, and two colon cancer cell lines, SW480 and HCT116, were incubated with small molecule compounds FN1-1, FN1-2, FN1-3; FN1-5 and FN2-1 at a concentration of 100 μM. DMSO was used as a control. […] This assay identified the small molecule compound FN1-5 inhibiting GLI transcription activation domain (TAF-binding domain, TAFbd), as an active hit compound.

[3] = test system: H358 (NSCLC); assay: Apoptosis analysis (Annexin V FITC, flow cytometry); details: 3 days
Experimental: as §1
Dose titration experiments of small molecule compound FN1-8 was performed using the NSCLC cell lines A549, H358, and H322. A 549, H358, and H322 cells were plated in 6-well plates and incubated with DM SO (control) or 7.5 μM, 10 μM, 15 μM, 20 μM, and 30 μM of FN1-8, respectively, for 3 days. A dramatic and dose-dependent cell killing in these cell lines was observed when FN1-8 was added at 15 μM or more. FN1-8 induced cell killing in A549 and […] at slightly lower concentrations than in H322 cells (data not shown). After 3 days, approximately 28% of the A549 cells and 58% of H358 underwent apoptosis when incubated with 20 μM FN1-8 (Table 3).

[4] = test system: cytosolic β-catenin in melanoma cell lines A375 and SK-Mel-5; assay: Western blot of cytosolic β-catenin; details: 10 μM or 20 μM
Experimental: […] Protein concentrations were measured using Bio-Rad Protein Assay reagent. Whole cell lysate protein (5-20 ug) were boiled for 5 min and separated by 10-20% SDS-PAGE. Proteins were transferred to an Immobilon-P membrane (Millipore Corp., Bedford, Mass.) using semi-dry transfer cell (Bio-Rad; Benicia, Calif.). The membranes were blocked with 5% nonfat milk powder and 0.1% Tween 20 in Tris-buffer saline overnight at 4° C. and then incubated with primary antibody for 1 h at room temperature. Membranes were washed in 5% nonfat milk powder and 0.1% Tween 20 in Tris-buffer saline for three 10-min periods. Horseradish peroxidase-conjugated goat anti-rabbit or donkey anti-mouse antibodies were used as secondary antibodies. Proteins were visualized with chemiluminescence luminol reagents (Santa Cruz Bio-technology). Anti-Dvl-3, and anti-Survivin, antibodies were from Santa Cruz Biotechnology (Santa Cruz, Calif.). Anti-Caspase3 antibody was from Oncogene (Cambridge, Mass.). Anti-β-Actin antibody was from Sigrna-Aldrich Corp. (St. Louis, Mo.). Anti-β-catenin antibody was from Transduction Laboratories (Lexington, Ky.). Anti-Cytochrome c antibody was from BD Biosciences (San Diego, Calif.). For detecting alteration of β-catenin cytosolic extracts were prepared and examined as described previously in the publications from our lab. […]

[5] = test system: Malme-3M (melanoma); assay: Apoptosis analysis (Annexin V FITC, flow cytometry); details: 10 μM
Experimental: as §1
(§2) Dose titration experiments of small molecule compound FN1-8 was performed using the melanoma cell lines A375, G361, SK-Mel-2, SK-Mel-5, and SK-Mel-28. A 375 cells were plated in 6-well plates and incubated with DM SO (control) or 2 μM, 5 μM, 10 μM, 20 μM, and 40 μM of FN1-8, respectively, for 3 days. A dramatic and dose-dependent cell killing in this cell line was observed when FN1-8 was added at 10 μM or more (data not shown). […] After 4 days of incubation with 20 μM FN1-8, approximately 20% of the Malme-3M cells, 28% of SK-Mel-2 cells, 36% of SK-Mel-5 cells, 41% of A375 cells, and 17% of G361 cells underwent apoptosis, while less than 3% of normal skin fibroblast cells underwent apoptosis under the same conditions (Table 3).

[6] = test system: SK-Mel-28 (melanoma); assay: as above
Experimental: as §1, §2

[7] = test system: Malme-3 (normal skin cells); assay: as above; details: 10 μM
Experimental: as §1, §2

[8] = test system: G361 (melanoma); assay: as above
Experimental: as §1, §2

[9] = test system: SK-Mel-5 (melanoma); assay: as above
Experimental: as §1, §2

[10] = test system: A375 (melanoma); assay: as above
Experimental: as §1, §2

[11] = test system: SK-Mel-2 (melanoma); assay: as above
Experimental: as §1, §2

Compound	% of apoptotic cells ([1]; SW480, 10 μM) [%]	% of apoptotic cells ([1]; SW480, 100 μM) [%]	cell killing effect [2]	% of apoptotic cells ([3]; H358, 10 μM) [%]	% of apoptotic cells ([3]; H358, 20 μM) [%]	cytosolic β-catenin level [4]	% of apoptotic cells [5] [%]	% of apoptotic cells ([6]; SK-Mel-28, 10 μM) [%]	% of apoptotic cells ([6]; SK-Mel-28, 20 μM) [%]	% of apoptotic cells [7] [%]	% of apoptotic cells ([8]; G361, 10 μM) [%]	% of apoptotic cells ([8]; G361, 20 μM, 4 days of incubation) [%]	% of apoptotic cells ([9]; SK-Mel-5, 10 μM) [%]	% of apoptotic cells ([9]; SK-Mel-5, 20 μM, 4 days of incubation) [%]	% of apoptotic cells ([10]; A375, 10 μM) [%]	% of apoptotic cells ([10]; A375, 20 μM, 4 days of incubation) [%]	% of apoptotic cells ([11]; SK-Mel-2, 10 μM) [%]	% of apoptotic cells ([11]; SK-Mel-2, 20 μM, 4 days of incubation) [%]
O=C(NCCCCCO)C1C(c2ccccc2)=NN(c2ccccc2)C1c1ccccc1 (stereo not drawn) [FN1-5, N-(5-Hydroxypentyl)-1,3,5-triphenyl-4,5-dihydro-pyrazole-4-carboxyamide]	10.8	58.6	dramatic cell killing effect	–	–	–	–	–	–	–	–	–	–	–	–	–	–	–
O=C(NCCc1ccc(O)cc1)C1C(c2ccccc2)=NN(c2ccccc2)C1c1ccccc1 (stereo not drawn) [FN1-8, N-(2-(4-Hydroxyphenyl)ethyl)-1,3,5-triphenyl-4,5-dihydro-pyrazole-4-carboxyamide]	–	–	–	15.2	58.1	down-regulated	10.5	7.7	11.8	2.1	7.5	15.5	7.9	34.9	35.8	39.7	9	25.3
